Measurements taken from article PMC3949521 (Acta Crystallographica Section D: Biological Crystallography, 2014).

Target: T1, B. megaterium PBGD (Priestia megaterium, UniProt Q8GCA8)
T1 construct: gene hemC; His tag removed for crystals; gene encodes 310 residues; about 35 kDa; monomer; cofactor on Cys241; residues 42-62 disordered
Assay: X-ray crystal structure, […] and […] Å
Format: binding
Conditions: covalent (thioether to Cys241), pH 6.5-6.8, partial occupancy

T1 sequence (Q8GCA8 entry or part of it): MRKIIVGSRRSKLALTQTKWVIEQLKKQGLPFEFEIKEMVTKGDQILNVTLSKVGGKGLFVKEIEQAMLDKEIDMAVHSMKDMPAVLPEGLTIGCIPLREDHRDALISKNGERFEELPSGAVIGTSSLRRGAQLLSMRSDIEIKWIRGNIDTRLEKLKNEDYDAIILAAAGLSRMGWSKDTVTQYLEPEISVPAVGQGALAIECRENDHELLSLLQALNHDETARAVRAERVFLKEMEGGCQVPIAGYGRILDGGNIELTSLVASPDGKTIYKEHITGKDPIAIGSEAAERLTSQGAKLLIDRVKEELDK

Structure (SMILES) | X-ray crystal structure, 1.46 and 1.60 Å (X-ray cannot tell dipyrromethane from dipyrromethene, PDB also 4mlq) | X-ray crystal structure, 1.46 and 1.60 Å (shared with reduced conformer, inactive oxidized form, PDB also 4mlv)
N[C@@H](CSCc1[nH]c(Cc2[nH]cc(CCC(=O)O)c2CC(=O)O)c(CCC(=O)O)c1CC(=O)O)C(=O)O [dipyrromethane cofactor] | one of which corresponds to the fully reduced dipyrromethane | 
N[C@@H](CSCc1[nH]c(CC2NC(=O)C(CCC(=O)O)=C2CC(=O)O)c(CCC(=O)O)c1CC(=O)O)C(=O)O (some centres unmarked) [dipyrromethanone] |  | the 'oxidized' conformation of the cofactor is actually the partly reduced dipyrromethanone form
